Measured values taken from patent publication US10766869B2, “Triazoles for the treatment of demyelinating dieases” (Vertex Pharmaceuticals Incorporated, priority 2015, dated 2020).
Where two headings read alike, the source gives them in different places.

What was measured:
[1] = system: C57BL/6 mice demyelinated with cuprizone; assay: In vivo mouse cuprizone assay (new myelin, MBP positive / MOG negative area); conditions: for effect measured as new myelin generated in response to compound treatment compared to control with no added compound: Regimen A (QD or BID for 14 days via oral gavage), various doses; for effect (new myelin generated compared to control): Regimen A, oral gavage
Excerpt: Assays for Detecting and Measuring Remyelination Properties of Compounds In Vivo Mouse Cuprizone Assay:
Cuprizone Feeding Protocol:
2 month old female C57BL/6 mice (Stock Number: 000664) were purchased from Jackson Labs and fed for 4-10 months with a 0.2% cuprizone chow (provided by Research Diets, Product # D10020701R, Description AIN-76A Rodent Diet with 0.2% cuprizone) using cuprizone purchased from Sigma (Cat #14690-100G). Chow was provided ad libitum, and refreshed every 4 days to ensure stability of the cuprizone. Mice were maintained on this diet for 4-10 months before initiation of the experiments.
1) 24 hours prior to the start of dosing, 6 to 10 mice were switched from cuprizone chow to normal chow (Picolab rodent diet 20 EXT IRR 5053, irradiated) without added cuprizone. These mice were maintained on normal chow throughout the course of dosing.
2) 6 to 10 mice per group were randomized into new cages such that mice that were housed in one cage during the cuprizone diet were not housed together in one dose group during the study.
3) Mice were dosed with compound in one of two regimens: Regimen A: mice were dosed QD or BID for 14 days via oral gavage. Regimen B: mice were dosed QD or BID for 14 days via IP injection. However, other dosing schedules and/or routes of administration may also be used.
4) On the last day of dosing, dried blood spots were collected at multiple time points following the last dose. Often this was 30 minutes, 2, 6 and 24 hours following the final dose on day 14 via the tail vein.
Perfusion and Sectioning:
1) The day after the last day of dosing, mice were transcardially perfused with 12 ml of PBS (Sigma, P4417) followed by 20 ml of 3.2% paraformaldehyde in PBS (Electron Microscopy Sciences #15714-S). The brains were removed via standard dissection techniques and each was postfixed in 3.2% paraformaldehyde (20 ml) for 24-48 hours at room temperature in sealed scintillation vials.
2) Serial 50 micron sections were collected through the anterior posterior extent of the brain, from just behind the olfactory bulb, through visual cortex using a vibrating microtome, the V-STAR (described in International Publication No. WO 2013/012799 and U.S. Pat. No. 8,967,024 both of which are incorporated herein by reference in their entirety). Sections were collected in phosphate buffered saline (PBS). Vibratome speed was set to 1.1 mm/s and amplitude was set to 0.8 mm.
3) A series of every 24th section was removed for staining yielding 5 sections per brain.
1) Tissue sections were stained using an automated system for processing blots (hereinafter the “blotinator”) (described in WO2011/087646 and U.S. Pat. Nos. 8,337,754 and 8,679,406 each of which is incorporated herein by reference in its entirety). Brain sections were placed in the blotinator plate and bathed in PBS. The blotinator applied primary antibodies (MOG and MBP together) and Hoechst nuclear stain for 12 hours at room temperature with constant shaking.
The following stains were diluted in blocking buffer (described below):
Hoechst nuclear stain (0.5 mg/ml)(bisBenzimide H 33342 trihydrochloride Sigma #33342).
Myelin basic Protein (MBP) antibody (Abcam Cat # ab7349) was diluted at a 1:750 ratio in blocking buffer).
Myelin Oligodendrocyte Glycoprotein (MOG) (R&D systems Cat # AF2439) was diluted at a 1:250 ratio in blocking buffer.
Antibodies were diluted in blocking buffer, which consisted of 0.3% Triton X-100 (Sigma Cat #234729), 0.02% Sodium Azide (Sigma Cat # S2002) and 8% fetal bovine serum in PBS (Sigma Cat # F2442).
2) The blotinator washed the samples 4 times for 5 minutes each with a wash buffer (0.2% Triton X-100 in PBS).
3) The blotinator applied secondary antibodies diluted in blocking buffer and incubated them for 2 hours with constant shaking.
Alexa 488 donkey anti-rat secondary (Life technologies Cat # A-21208) was diluted at 1:1000 in blocking buffer. […]

[2] = system: primary rat mixed cortical cells; assay: In vitro myelination assay (MBP positive myelin strands, fold myelin pixels above background); format: cell-based; conditions: Rattus norvegicus, relative to baseline of no added compound; for fold induction at 1 µM: 1.0 μM compound; for fold induction at 10 µM: 10.0 μM compound
Procedure, shortened: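 P1 rat cortical cells (neurons, OPCs, oligodendrocytes, astrocytes, microglia) were cultured 14 days at 37 °C with compound, with half-medium changes containing 1× compound on days 6 and 10. Fixed cells were immunostained for MBP and imaged at 10×. Total MBP myelin pixels per well were expressed as fold above no-compound baseline at 1.0 μM and 10.0 μM.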

[3] = read-out: Fold myelin pixels above background, 1.0 μM
[4] = read-out: Fold myelin pixels above background, 10.0 μM
[5] = read-out: Fold myelin pixels above background

Compound | effect measured as new myelin generated in response to compound treatment compared to control with no added compound [1] | effect (new myelin generated compared to control) ([1]; 20 mpk) | effect (new myelin generated compared to control) ([1]; 30 mpk) | effect (new myelin generated compared to control) ([1]; 40 mpk) | fold induction at 1 µM [2, 3] | fold induction at 10 µM [2, 4] | effect (new myelin generated compared to control) ([1]; 8 mpk) | effect (new myelin generated compared to control) ([1]; 10 mpk) | fold induction at 1 µM [2, 5] | fold induction at 10 µM [2, 5] | effect (new myelin generated compared to control) ([1]; 90 mpk) | effect (new myelin generated compared to control) ([1]; 60 mpk) | effect (new myelin generated compared to control) ([1]; 100 mpk)
Cc1cc(Nc2ncn(-c3cc(F)cc(F)c3)n2)nc(N2CCN(C3COC3)CC2)c1 [Compound 331, N-[1-(3,5-difluorophenyl)-1,2,4-triazol-3-yl]-4-methyl-6-[4-(oxetan-3-yl)piperazin-1-yl]pyridin-2-amine] | positive effect | positive effect | positive effect | positive effect | 1 to 10 | 10 to 100 |  |  |  |  |  |  | 
Cc1cc(Nc2ncn(-c3cc(F)cc(F)c3)n2)c(F)c(N2CCN(C3COC3)CC2)c1 [Compound 691, 1-(3,5-Difluorophenyl)-N-(2-fluoro-5-methyl-3-(4-(oxetan-3-yl)piperazin-1-yl)phenyl)-1H-1,2,4-triazol-3-amine] | positive effect | positive effect |  |  |  |  | positive effect | positive effect | 10 to 100 | 10 to 100 |  |  | 
Cc1cc(Nc2ncn(-c3cc(F)cc(F)c3)n2)cc(N2CCN(C3(C)COC3)CC2)c1 [Compound 215, 1-(3,5-difluorophenyl)-N-[3-methyl-5-[4-(3-methyloxetan-3-yl)piperazin-1-yl]phenyl]-1,2,4-triazol-3-amine] | positive effect |  | positive effect |  | 10 to 100 | 10 to 100 |  |  |  |  | positive effect |  | 
Fc1ccc(-n2cnc(Nc3cc(C(F)F)cc(N4CCN(C5COC5)CC4)n3)n2)cc1F [Compound 524, 4-(difluoromethyl)-N-[1-(3,4-difluorophenyl)-1,2,4-triazol-3-yl]-6-[4-(oxetan-3-yl)piperazin-1-yl]pyridin-2-amine] | positive effect | positive effect | positive effect |  |  |  |  | positive effect | 100 to 1000 | 100 to 1000 |  |  | 
Cc1cc(Nc2ncn(-c3cnccn3)n2)cc(N2CCN(C3COC3)CC2)c1 [Compound 195, N-[3-methyl-5-[4-(oxetan-3-yl)piperazin-1-yl]phenyl]-1-pyrazin-2-yl-1,2,4-triazol-3-amine] | positive effect |  |  |  | 100 to 1000 | 100 to 1000 |  |  |  |  |  | positive effect | positive effect
